Measurements taken from ChEMBL document CHEMBL1201862, “PubChem BioAssay data set” (2004).
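Method: 48-hour compound exposure of cells in 96-well plates, five concentrations, linear interpolation of endpoints. Here, GI50 denotes the concentration required for 50% inhibition of growth.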 Calls of active or inactive are those of the source. Rule as the data show it: active = GI50 up to about 1.1 µM and inactive = higher.

Assays:
Assay in all cases: NCI-60 cell line screen, 48 h
[1] = tested on: ACHN
[2] = tested on: MDA-N
[3] = tested on: PC-3
[4] = tested on: TK-10
[5] = tested on: NCI-H460
[6] = tested on: HCC 2998
[7] = tested on: Hs-578T
[8] = tested on: SF-268
[9] = tested on: M14
[10] = tested on: T47D
[11] = tested on: MDA-MB-435
[12] = tested on: NCI-H522
[13] = tested on: OVCAR-8
[14] = tested on: SR
[15] = tested on: LOX IMVI
[16] = tested on: HOP-18
[17] = tested on: DMS-114
[18] = tested on: SNB-78
[19] = tested on: KM-20L2
[20] = tested on: M19-MEL

Measured: GI50

O=C(Nc1ccccc1F)c1c(O)nc2sccn2c1=O
inactive: [1] > 10 µM | [2] > 10 µM | [3] > 10 µM | [4] > 10 µM | [5] > 10 µM | [6] > 10 µM | [7] > 10 µM | [8] > 10 µM | [9] > 10 µM | [10] > 10 µM | [11] > 10 µM | [12] > 10 µM | [13] > 10 µM | [14] > 10 µM | [15] > 10 µM

CNC(=O)SCC(N)C(=O)O (stereo not given)
inactive: [16] > 78.2 µM | [5] > 68.7 µM | [6] > 100 µM | [8] > 100 µM | [17] 35.3 µM | [18] > 100 µM | [12] > 67.9 µM | [13] > 100 µM | [19] > 100 µM | [15] 42.2 µM

CCOC(=O)CSc1nc(N)c2c(-c3ccc(OC)c(OC)c3)c3c(nc2n1)CCCC3
inactive: [1] > 100 µM | [2] > 100 µM | [3] > 100 µM | [4] > 100 µM | [5] > 100 µM | [7] 17.1 µM | [8] 43.4 µM | [9] > 100 µM | [10] > 100 µM | [11] > 100 µM | [13] 24.3 µM | [14] > 100 µM | [15] > 100 µM

C[C@]12CC[C@@H]3c4ccc(OCCN5CCCC5)cc4CC[C@H]3[C@@H]1CCC2=O
inactive: [1] 62.7 µM | [2] 22 µM | [3] 23.7 µM | [4] 41 µM | [5] 19.9 µM | [6] 10.3 µM | [9] 13.7 µM | [10] 36.1 µM | [11] 42.7 µM | [13] 25.6 µM | [14] 29.9 µM | [15] 7.38 µM

CSc1nc(CO)c(CO)n1C
inactive: [16] > 100 µM | [20] > 100 µM | [5] > 100 µM | [6] > 100 µM | [8] > 100 µM | [17] > 100 µM | [18] > 100 µM | [12] > 100 µM | [13] > 100 µM | [19] > 100 µM | [15] > 100 µM

COc1cc(-c2cc(=O)c3c(O)c(CC=C(C)C)c(O)cc3o2)ccc1O
inactive: [1] 19.1 µM | [2] 8.49 µM | [3] 16.7 µM | [4] 23.4 µM | [5] 19.5 µM | [7] 29.5 µM | [8] 24.6 µM | [9] 12.4 µM | [10] 9.77 µM | [11] 9.1 µM | [13] 26.7 µM | [14] 14.7 µM | [15] 19.1 µM

Cn1c(=O)[nH]c2nncnc2c1=O
inactive: [16] 13.5 µM | [20] 43.7 µM | [5] 29.3 µM | [6] 54 µM | [8] 133 µM | [17] 126 µM | [18] 151 µM | [12] 157 µM | [13] 19.8 µM | [19] 55.2 µM | [15] 361 µM

Nc1cccc2c1C1=NNC(=O)CC1C2 (stereo not given)
inactive: [20] > 100 µM | [5] > 100 µM | [6] > 100 µM | [8] > 100 µM | [17] > 100 µM | [18] > 100 µM | [12] > 100 µM | [13] > 100 µM | [19] > 100 µM | [15] > 100 µM
